10 molecules from patent publication US20240239790A1, “7-Morpholino-1,6-Naphthyridin-5-yl Derivatives and Pharmaceutical Compositions Thereof Useful as DNA-PK Inhibitor” (adMare Therapeutics Society, priority 2021, published 2024) can be followed below.

The target of series [1] is T1, DNA-PK phosphorylation at Serine 2056 (Homo sapiens, UniProt P78527).
T1 construct: FaDu cells were purchased from ATCC; host or cells: FaDu
Nature of the series: Cellular Assay for Inhibition of DNA-PK Phosphorylation at Serine 2056 in FaDu cells (sandwich ELISA, neocarzinostatin). In kind it is cell-based. The conditions noted are these: pSer2056 DNA-PK, Table 3. The gist of the method:
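pSer2056 and total DNA-PK were measured by sandwich ELISA in BCA-normalised FaDu lysates. Cells had 1 h compound exposure (0.3% DMSO), then 2 h with 1 μg/mL final neocarzinostatin. IC50 was fitted (variable slope) to % inhibition scaled against NCS-stimulated and DMSO-only controls.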
(In general: An ELISA detects its analyte on a solid surface through an enzyme-linked reagent.)

The test system of series [2] is pH2AX induction in HCT116 ATM-/- multicellular tumour spheroids. Put plainly: Prodrug Radiation Sensitization in Multicellular Tumour Spheroids, inhibition of pH2AX induction following radiation. In kind it is cell-based. Conditions: Homo sapiens, HCT-116, 20 Gy. A digest of the protocol:
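Endpoint: pH2AX (ser 139) or pDNA-PK (ser 2056) in cryosections fixed 1 or 2 h after 20 Gy, comparing oxygenated outer with hypoxic inner layers. Spheroids of ~0.5 mm (HCT116, FaDu; ATM-deficient cells used) held at 20% or 5% O2, 37 °C, stirred. Prodrug range 3.5 nM–10 μM.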

The subject of series [3] is FaDu cell line. Nature of the series: Prodrug Activation in Hypoxic Stirred Tumour Cell Suspensions. The conditions noted are these: 10 μM, 4 hours.
Experimental: Prodrug compounds were assayed to determine their stability and rate of activation in stirred cell suspensions under 0.2 vs 5% oxygen. Compounds were diluted 1:1000 from DMSO stocks to 10 μM final concentration in tumour cell suspensions (1% by cell volume) in MEM media containing 10% FBS, 10 mM glucose & 3.7 g/L sodium bicarbonate. Cell lines assayed included A253, A549, Detroit562, FaDu, HCT116, HEP G2, HT29, SCC25, SCC9, SiHa & TC32. Compounds and cells were then incubated for 4 hours under constant mixing at 37° C. under 5% CO2 and either 0.2 or 5% O2. Following the incubation period cellular activation of the compounds was assayed via MeOH extraction and HPLC quantification.
Setting [4] is: 5% O2, inner layers, read-out: Prodrug 5% O2 Inner layers EC50.
[5] abbreviates: 5% O2, outer layers, read-out: Prodrug 5% O2 Outer layers EC50.
The mark [6] stands for this setting: 20% O2, outer layers, read-out: Prodrug 20% O2 Outer layers EC50.

Like-named read-outs stand apart in the source and are kept apart here.

As a reminder, the IC50 is the concentration needed to halve the response being measured. Low values mean higher potency, high ones lower potency. By EC50 is commonly meant the concentration that produces a half-maximal response. Take `Cc1cc(C)nc(N[C@H]2CC[C@@H](Oc3nc(N4CCOCC4)cc4ncc(OC(C)c5cnc([N+](=O)[O-])n5C)cc34)CC2)n1` (stereo partly drawn) [LFA2082, 4,6-dimethyl-N-[4-[[3-[1-(3-methyl-2-nitro-imidazol-4-yl)ethoxy]-7-morpholino-1,6-naphthyridin-5-yl]oxy]cyclohexyl]pyrimidin-2-amine]: in series [1], the IC50 fell in the range of 10 to 30 µM. Moreover, the EC50 in series [2] (setting [4]) fell in the range of 0.01 to 0.5 µM; in series [2] (setting [5]) it was 1 to 10 µM; in series [2] (setting [6]) it was 1 to 10 µM. The “Fraction of prodrug converted to active form, Hypoxic 0.2% O2” value (“Fraction … Hypoxic 0.2% O2” below) in series [3] was “A (A is 0.15 to 1)”. In addition, in series [3], the “Fraction of prodrug converted to active form, Oxic 5% O2” value (“Fraction … Oxic 5% O2” below) was “C (C is 0.02 to 0.05)”.

Take `Cn1c(COc2cnc3cc(N4CCOCC4)nc(O[C@H]4CC[C@@H](Nc5cncc(C(F)(F)F)n5)CC4)c3c2)cnc1[N+](=O)[O-]` [LFA2097, N-[4-[[3-[(3-methyl-2-nitro-imidazol-4-yl)methoxy]-7-morpholino-1,6-naphthyridin-5-yl]oxy]cyclohexyl]-6-(trifluoromethyl)pyrazin-2-amine]: the IC50 in series [1] lay within 10 to 30 µM. In addition, the EC50 in series [2] (setting [4]), in series [2] (setting [5]) and in series [2] (setting [6]) was 10 to 100 µM each time. Also, in series [3], the “Fraction … Hypoxic 0.2% O2” value was “C (C is 0.02 to 0.05)”. In series [3], the “Fraction … Oxic 5% O2” value is “D (D is 0 to 0.02)”.

As to `Cn1c(COc2cnc3cc(N4CCOCC4)nc(O[C@H]4CC[C@@H](c5cnccn5)CC4)c3c2)cnc1[N+](=O)[O-]` [LFA2042, 4-[3-[(3-methyl-2-nitro-imidazol-4-yl)methoxy]-5-(4-pyrazin-2-ylcyclohexoxy)-1,6-naphthyridin-7-yl]morpholine], the IC50 in series [1] was in the range of 10 to 30 µM. In addition, the concentration giving a half-maximal response (EC50) lay in the range of 0.01 to 0.5 µM in series [2] (setting [4]), 1 to 10 µM in series [2] (setting [5]) and 1 to 10 µM in series [2] (setting [6]). In series [3], the “Fraction … Hypoxic 0.2% O2” value is given as “A (A is 0.15 to 1)”. Moreover, in series [3], the “Fraction … Oxic 5% O2” value was “C (C is 0.02 to 0.05)”.

In series [1], `Cn1ncc(CN(c2cnc3cc(N4CCOCC4)nc(O[C@H]4CC[C@@H](Nc5ncc(OCCN6CCOCC6)cn5)CC4)c3c2)S(C)(=O)=O)c1[N+](=O)[O-]` [LFA2076, N-[(1-methyl-5-nitro-pyrazol-4-yl)methyl]-N-[7-morpholino-5-[4-[[5-(2-morpholinoethoxy)pyrimidin-2-yl]amino]cyclohexoxy]-1,6-naphthyridin-3-yl]methanesulfonamide] had a concentration for half-maximal inhibition (IC50) of 1 to 10 µM. The concentration giving a half-maximal response (EC50) in series [2] (setting [4]), in series [2] (setting [5]) and in series [2] (setting [6]) was 0.01 to 0.5 µM throughout. Also, the “Fraction … Hypoxic 0.2% O2” value in series [3] was “B (B is 0.05 to 0.15)”. Besides, the “Fraction … Oxic 5% O2” value in series [3] is given as “B (B is 0.05 to 0.15)”.

In series [1], `CC(Oc1cnc2cc(N3CCOCC3)nc(O[C@H]3CC[C@@H](c4cnccn4)CC3)c2c1)c1cnc([N+](=O)[O-])n1C` (stereo partly drawn) [LFA2041, 4-[3-[1-(3-methyl-2-nitro-imidazol-4-yl)ethoxy]-5-(4-pyrazin-2-ylcyclohexoxy)-1,6-naphthyridin-7-yl]morpholine] gave an IC50 of 10 to 30 µM. The EC50 was 0.01 to 0.5 µM in series [2] (setting [4]), 1 to 10 µM in series [2] (setting [5]) and 1 to 10 µM in series [2] (setting [6]). The “Fraction … Hypoxic 0.2% O2” value in series [3] is given as “A (A is 0.15 to 1)”. In series [3], the “Fraction … Oxic 5% O2” value is given as “B (B is 0.05 to 0.15)”.

On to `CC(c1cnc([N+](=O)[O-])n1C)N(c1cnc2cc(N3CCOCC3)nc(OC3CCC(c4cnccn4)CC3)c2c1)S(C)(=O)=O` (stereo not drawn) [LFA2043, N-[1-(3-methyl-2-nitro-imidazol-4-yl)ethyl]-N-[7-morpholino-5-(4-pyrazin-2-ylcyclohexoxy)-1,6-naphthyridin-3-yl]methanesulfonamide], for which the IC50 in series [1] lay in the range of 1 to 10 µM. Further, the figures for the EC50 in series [2] (setting [4]), in series [2] (setting [5]) and in series [2] (setting [6]) were 0.01 to 0.5 µM, 0.5 to 1 µM and 1 to 10 µM, respectively. Further, in series [3], the “Fraction … Hypoxic 0.2% O2” value is “B (B is 0.05 to 0.15)”. Moreover, in series [3], the “Fraction … Oxic 5% O2” value is “D (D is 0 to 0.02)”.

Molecule `CC(c1cnn(C)c1[N+](=O)[O-])N(c1cnc2cc(N3CCOCC3)nc(O[C@H]3CC[C@@H](Nc4ncc(OCCN(C)C)cn4)CC3)c2c1)S(C)(=O)=O` (stereo partly drawn) [LFA2073, N-[5-[4-[[5-[2-(dimethylamino)ethoxy]pyrimidin-2-yl]amino]cyclohexoxy]-7-morpholino-1,6-naphthyridin-3-yl]-N-[1-(1-methyl-5-nitro-pyrazol-4-yl)ethyl]methanesulfonamide] displayed an IC50 in series [1] of 1 to 10 µM. The EC50 in series [2] (setting [4]) fell in the range of 0.01 to 0.5 µM; in series [2] (setting [5]), 1 to 10 µM; in series [2] (setting [6]), 1 to 10 µM. Besides, the “Fraction … Hypoxic 0.2% O2” value in series [3] is on record as “B (B is 0.05 to 0.15)”. In addition, the “Fraction … Oxic 5% O2” value in series [3] is listed as “C (C is 0.02 to 0.05)”.

In the case of `Cn1c(CN(c2cnc3cc(N4CCOCC4)nc(O[C@H]4CC[C@@H](Nc5ccc(F)cn5)CC4)c3c2)S(C)(=O)=O)cnc1[N+](=O)[O-]` [LFA2010, N-[5-[4-[(5-fluoro-2-pyridyl)amino]cyclohexoxy]-7-morpholino-1,6-naphthyridin-3-yl]-N-[(3-methyl-2-nitro-imidazol-4-yl)methyl]methanesulfonamide], the half-maximal inhibitory concentration (IC50) in series [1] lay within 0.1 to 1 µM. Further, the figures for the EC50 in series [2] (setting [4]), in series [2] (setting [5]) and in series [2] (setting [6]) were 0.01 to 0.5 µM, 0.5 to 1 µM and 1 to 10 µM, respectively. The “Fraction … Hypoxic 0.2% O2” value in series [3] is “B (B is 0.05 to 0.15)”. Moreover, the “Fraction … Oxic 5% O2” value in series [3] is given as “C (C is 0.02 to 0.05)”.

Regarding `CN1CCN(CCOc2cnc(N[C@H]3CC[C@@H](Oc4nc(N5CCOCC5)cc5ncc(N(Cc6cnc([N+](=O)[O-])n6C)S(C)(=O)=O)cc45)CC3)nc2)CC1` [LFA2059, N-[(3-methyl-2-nitro-imidazol-4-yl)methyl]-N-[5-[4-[[5-[2-(4-methylpiperazin-1-yl)ethoxy]pyrimidin-2-yl]amino]cyclohexoxy]-7-morpholino-1,6-naphthyridin-3-yl]methanesulfonamide], in series [1], the IC50 lay within 1 to 10 µM. Further, the EC50 in series [2] (setting [4]), in series [2] (setting [5]) and in series [2] (setting [6]) was 1 to 10 µM throughout. Also, the “Fraction … Hypoxic 0.2% O2” value in series [3] was “B (B is 0.05 to 0.15)”. Further, the “Fraction … Oxic 5% O2” value in series [3] was “D (D is 0 to 0.02)”.

Molecule `Cc1nc(N[C@H]2CC[C@@H](Oc3nc(N4CCOCC4)cc4ncc(N(Cc5cnc([N+](=O)[O-])n5C)S(C)(=O)=O)cc34)CC2)ccc1F` [LFA2011, N-[5-[4-[(5-fluoro-6-methyl-2-pyridyl)amino]cyclohexoxy]-7-morpholino-1,6-naphthyridin-3-yl]-N-[(3-methyl-2-nitro-imidazol-4-yl)methyl]methanesulfonamide] came in with an IC50 in series [1] of 10 to 30 µM. For the same molecule, the EC50 in series [2] (setting [4]), in series [2] (setting [5]) and in series [2] (setting [6]) was 1 to 10 µM in each case. Besides, the “Fraction … Hypoxic 0.2% O2” value in series [3] is given as “C (C is 0.02 to 0.05)”. Also, in series [3], the “Fraction … Oxic 5% O2” value was “D (D is 0 to 0.02)”.
